Where two headings read alike, the source gives them in different places.
Key:
[1] = tested on: Salmonella typhimurium 1535/pSK1002
[2] = tested on: Salmonella typhimurium 1535/pSK1002; remark: listed apart in the source
[3] = tested on: Salmonella tester strains; conditions: cited from earlier work
[4] = tested on: Salmonella typhimurium 1535/pSK1002; remark: listed apart in the source
Escherichia coli PQ37 = conditions: cited from earlier work
[5] = tested on: 1535, 1538 and 98 strains; conditions: cited from earlier work
Escherichia coli = conditions: cited from earlier work

| Compound | experiments with IF values above two [2] | mutagenic activity in the Ames test [3] | genotoxicity result in the SOS/umu test [4] | genotoxicity result in the SOS/umu test [1] | genotoxicity result in the SOS/umu test [2] | further results |
| --- | --- | --- | --- | --- | --- | --- |
| Nc1ccc2cc3ccccc3cc2c1 [2AA, 2-aminoanthracene, reference compound] | – | – | – | – | – | experiments in which the compound was genotoxic [1]: eight out of eight experiments; induction factor (IF) reached ([1]; Salmonella typhimurium): around 4 |
| CC(=O)O[C@@H]1C[C@]2(C)[C@@]3(CO)[C@H](O)C(=O)C(C)=C[C@H]3O[C@H]1[C@@]21CO1 [3ADON, 3-acetyldeoxynivalenol] | three out of four experiments | mutagenic activity was not found | – | – | – | – |
| CC(=O)OC[C@]12[C@H](O)C(=O)C(C)=C[C@H]1O[C@@H]1[C@H](O)C[C@@]2(C)[C@]12CO2 [15ADON, 15-acetyldeoxynivalenol] | two out of four experiments | – | – | – | – | – |
| CC1=C[C@H]2O[C@@H]3[C@H](O)C[C@](C)([C@@]2(CO)[C@H](O)C1=O)[C@]31CO1 [DON, deoxynivalenol] | – | mutagenic activity was not found | negative (key: IF values above or equal to two were considered as positive when the bacterial survival is above 80%; IF values below 1.5 were considered negative; IF among 2 and 1.5 were considered equivocal) | negative (key: IF values above or equal to two were considered as positive when the bacterial survival is above 80%; IF values below 1.5 were considered negative; IF among 2 and 1.5 were considered equivocal) | negative (key: IF values above or equal to two were considered as positive when the bacterial survival is above 80%; IF values below 1.5 were considered negative; IF among 2 and 1.5 were considered equivocal) | highest IF value obtained ([2]; Salmonella typhimurium): 1.94; genotoxicity in the SOS chromotest (Escherichia coli PQ37): negative |
| CC(=O)O[C@@H]1[C@@H](O)[C@H]2O[C@@H]3C=C(C)C(=O)[C@@H](O)[C@]3(CO)[C@]1(C)[C@]21CO1 [F-X, fusarenon-X] | – | mutagenic activity was not found | negative (key: IF values above or equal to two were considered as positive when the bacterial survival is above 80%; IF values below 1.5 were considered negative; IF among 2 and 1.5 were considered equivocal) | negative (key: IF values above or equal to two were considered as positive when the bacterial survival is above 80%; IF values below 1.5 were considered negative; IF among 2 and 1.5 were considered equivocal) | negative (key: IF values above or equal to two were considered as positive when the bacterial survival is above 80%; IF values below 1.5 were considered negative; IF among 2 and 1.5 were considered equivocal) | highest IF value obtained [2]: 1.88 |
| CCCC[C@@H](C)[C@@H](OC(=O)C[C@@H](CC(=O)O)C(=O)O)[C@H](C[C@@H](C)C[C@H](O)CCCC[C@@H](O)C[C@H](O)[C@H](C)N)OC(=O)C[C@@H](CC(=O)O)C(=O)O [FB1, fumonisin B1] | – | – | negative (key: IF values above or equal to two were considered as positive when the bacterial survival is above 80%; IF values below 1.5 were considered negative; IF among 2 and 1.5 were considered equivocal) | negative (key: IF values above or equal to two were considered as positive when the bacterial survival is above 80%; IF values below 1.5 were considered negative; IF among 2 and 1.5 were considered equivocal) | negative (key: IF values above or equal to two were considered as positive when the bacterial survival is above 80%; IF values below 1.5 were considered negative; IF among 2 and 1.5 were considered equivocal) | IF value reached [2]: 1.99; mutagenic potential in the Ames test [3]: negative; genotoxicity in the SOS chromotest (Escherichia coli PQ37): negative |
| CC(=O)OC[C@]12C[C@H](OC(=O)CC(C)C)C(C)=C[C@H]1O[C@@H]1[C@H](O)[C@@H](O)[C@@]2(C)[C@]12CO2 [HT-2, HT-2 toxin] | two out of four experiments | – | – | – | – | – |
| C[C@@H]1Cc2c(Cl)cc(C(=O)N[C@@H](Cc3ccccc3)C(=O)O)c(O)c2C(=O)O1 [OTA, ochratoxin A] | – | – | negative (key: IF values above or equal to two were considered as positive when the bacterial survival is above 80%; IF values below 1.5 were considered negative; IF among 2 and 1.5 were considered equivocal) | negative (key: IF values above or equal to two were considered as positive when the bacterial survival is above 80%; IF values below 1.5 were considered negative; IF among 2 and 1.5 were considered equivocal) | negative (key: IF values above or equal to two were considered as positive when the bacterial survival is above 80%; IF values below 1.5 were considered negative; IF among 2 and 1.5 were considered equivocal) | mutagenic response in the Ames test [3]: negative; mutagenicity with Salmonella tester strains [3]: consistently negative; SOS repair activity in SOS chromotest (Escherichia coli PQ37): induced SOS repair activity; response in SOS chromotest (Escherichia coli PQ37): weak response; mutagenicity in the Ames test [5]: mutagenic |
| COc1cc2c(c3oc4cccc(O)c4c(=O)c13)[C@@H]1C=CO[C@@H]1O2 [STER, sterigmatocystin] | one out of four experiments | – | – | – | – | induction factor (IF) [1]: greater than two |
| CC(=O)OC[C@]12C[C@H](OC(=O)CC(C)C)C(C)=C[C@H]1O[C@@H]1[C@H](O)[C@@H](OC(C)=O)[C@@]2(C)[C@]12CO2 [T-2, T-2 toxin] | three out of four experiments | mutagenic activity was not found | – | – | – | – |
| C[C@H]1CCCC(=O)CCC/C=C/c2cc(O)cc(O)c2C(=O)O1 [ZEA, zearalenone] | – | – | negative (key: IF values above or equal to two were considered as positive when the bacterial survival is above 80%; IF values below 1.5 were considered negative; IF among 2 and 1.5 were considered equivocal) | negative (key: IF values above or equal to two were considered as positive when the bacterial survival is above 80%; IF values below 1.5 were considered negative; IF among 2 and 1.5 were considered equivocal) | negative (key: IF values above or equal to two were considered as positive when the bacterial survival is above 80%; IF values below 1.5 were considered negative; IF among 2 and 1.5 were considered equivocal) | result in the Ames test [3]: negative; genotoxic concentration (induction of SOS repair) (Escherichia coli): 1.5 mM; IC50 (Escherichia coli; read-out: IC50 (toxicity)): 1450 µM |
| aflatoxin B1 [AFB1] | – | – | – | – | – | mutagenicity with metabolic activation relative to without bioactivation [3]: 1000 times |
